{"source": "patent US7834141B1", "about": "“Non-mammalian GnRH analogs and uses thereof in tumor cell growth regulation and cancer therapy” (priority 2000, dated 2010)", "key": {"[1]": {"tested_on": "MCF-7 breast cancer cells", "test": "MCF-7 breast cancer cell culture viability, Alamar Blue assay", "format": "cell-based, human", "conditions": "for inhibition of cell proliferation (cell viability, Alamar Blue): MCF-7, 24 hours of incubation, dose-response; for inhibition of cell proliferation: MCF-7, 48 hours of incubation", "experimental": "This system allows for replicated extended activity studies.\nThe bio-potency studies were done with a MCF-7 breast cancer cell culture system and the cell viability as a measure of survival was assessed using the Alamar Blue assay. The percent difference in the Alamar Blue optical density (OD) readings at 570 and 600 nm in the treated and untreated controls was determined. […] A dose-response study in quadruplicate cultures was performed. Cell viability was assessed after 24 and 48 hours of incubation with the activity agent."}, "[2]": {"tested_on": "chorionic post-proline peptidase", "test": "Competitive inhibition of mammalian GnRH degradation by chorionic post-proline peptidase (enzymatic activity assay, RIA of remaining substrate)", "conditions": "for relative potency of inhibition of chorionic post-proline peptidase activity compared to that for GnRH: substrate mammalian GnRH, GnRH = 1", "protocol": "(§1) Using the incubation system developed for chorionic post-proline peptidase activity, the degradation of GnRH was tested. Each of these analogs (SEQ ID NO: 2, SEQ ID NO: 4 and SEQ ID NO: 7) were first studied for their ability to act as a competitive inhibitor of GnRH for chorionic post-proline peptidase activity using the enzymatic activity assay as described previously (103). […] The reaction was stopped by heating at 85° C. for 10 minutes. […] The product formed, i.e. the N-terminal nonapeptide of GnRH, was calculated by subtraction, and its inverse plotted against the inverse of the original substrate concentrations to determine the Ks of the competition. The Ki was determined by plotting the inverse of the product that formed versus the inhibitor used."}, "[3]": {"tested_on": "GnRH receptors on the cells of MCF-7 breast cancer cells", "test": "Competitive binding of I^125-D-Arg(6)-Chicken II GnRH-aza-Gly(10)-amide to MCF-7 breast cancer cells", "design": "species or system human", "conditions": "for competitive inhibition of I^125-D-Arg(6)-Chicken II GnRH-aza-Gly(10)-amide binding (rank of potency): MCF-7 cells, 24 hours at room temperature; for receptor potency (in words): receptor test not given", "experimental": "GnRH receptors on the cells of MCF-7 breast cancer cells were studied. The cells were plated on 96 wells and grown to confluency in base medium (M3D:Fetal Bovine Serum [9:1]). Prior to the experiment the cells were down shifted to M3D:Fetal Bovine Serum [99:1] and then to serum-free medium. […] Addition of enzyme inhibitors of the endogenous post-proline peptidase and other peptidases were used as well as agents for receptor stabilization. Receptor bound label was separated by centrifugation. The binding of the non-mammalian GnRH analog and its ability to regulate the tumor cells' GnRH receptor was compared. […] This was followed by Buserilin. […] This indicated the high innate affinity of this isoform of GnRH for the tumor GnRH receptor. It is believed by Applicants that the same or similar results could be obtained using other non-mammalian GnRH isomers or analogs with similar amino acid structure as Chicken II GnRH such as but not limited to Salmon GnRH, Herring GnRH, Catfish GnRH, or Dogfish GnRH."}, "[4]": {"tested_on": "MCF-7 breast cancer cells", "test": "Degradation of GnRH and analogs by tumor tissue cells, with or without peptidase inhibitors", "format": "in vitro ADME, human", "excerpt": "Post-Proline Peptidase Stability Studies: As mentioned earlier, the post-proline peptidase is important in actively degrading peptides that contain a proline residue. GnRH is such a peptide. Initially the enzymatic activity of the tumor cell was studied. Tumor tissue cells and their spent media were studied for enzyme activity. In particular, examination was made for the degradation of GnRH both with and without specific post-proline and endopeptidase activity inhibitors to determine the specificity of the tumor enzymatic activity.\nChorionic post-proline peptidase is a peptidase with high specificity for the degradation of GnRH at the proline-glycine bond, but can also degrade other GnRH species containing this bond."}, "[5]": {"tested_on": "chorionic post-proline peptidase", "protocol": "as §1"}}, "note": "Like-named read-outs stand apart in the source and are kept apart here. Where a SMILES comes first, the peptide text is derived from it.", "data": [{"molecule": "CCNC(=O)[C@@H]1CCCN1C(=O)[C@H](CCCNC(=N)N)NC(=O)[C@H](CC(C)C)NC(=O)[C@@H](COC(C)(C)C)NC(=O)[C@H](Cc1ccc(O)cc1)NC(=O)[C@H](CO)NC(=O)[C@H](Cc1c[nH]c2ccccc12)NC(=O)[C@H](Cc1cnc[nH]1)NC(=O)[C@@H]1CCC(=O)N1", "note": "[Buserilin]", "values": [{"measurement": "inhibition of cell proliferation (cell viability, Alamar Blue)", "setting": "[1]", "value": "totally inactive"}, {"measurement": "degradation by chorionic post-proline peptidase (in words)", "setting": "[2]", "value": "competitively inhibited the degradation of mammalian GnRH"}]}, {"molecule": "N=C(N)NCCC[C@@H](NC(=O)[C@H](Cc1c[nH]cn1)NC(=O)[C@H](CO)NC(=O)[C@H](Cc1c[nH]c2ccccc12)NC(=O)[C@H](Cc1c[nH]cn1)NC(=O)[C@@H]1CCC(=O)N1)C(=O)N[C@@H](Cc1c[nH]c2ccccc12)C(=O)N[C@@H](Cc1ccc(O)cc1)C(=O)N1CCC[C@H]1C(=O)NNC(N)=O", "note": "[D-Arg(6)-Chicken II GnRH-aza-Gly(10)-amide] (HELM PEPTIDE1{[Glp].H.W.S.H.[dR].W.Y.P.[O=C(NN[*:1])[*:2]].[am]}$$$$V2.0)", "values": [{"measurement": "binding of I^125-labelled analog to MCF-7 breast cancer cells", "setting": "[3]; 24 hours of incubation, no exogenous GnRH", "value": "specifically bound the MCF-7 breast cancer cells"}, {"measurement": "competitive inhibition of I^125-D-Arg(6)-Chicken II GnRH-aza-Gly(10)-amide binding (rank of potency)", "setting": "[3]", "value": "greatest potency"}, {"measurement": "receptor potency (in words)", "setting": "[3]", "value": "increased receptor potency"}, {"measurement": "inhibition of cell proliferation (cell viability, Alamar Blue)", "setting": "[1]", "value": "positive dose-related activity"}, {"measurement": "inhibition of cell proliferation at 10^−5 M", "setting": "[1]; MCF-7, 24 hours, 10^−5 M", "value": "markedly active"}, {"measurement": "inhibition of cell proliferation", "setting": "[1]", "value": "equally as potent as at 24 hours"}, {"measurement": "degradation by chorionic post-proline peptidase (in words)", "setting": "[2]", "value": "resistant to degradation"}]}, {"molecule": "CCNC(=O)[C@@H]1CCCN1C(=O)[C@H](CCCNC(=N)N)NC(=O)[C@H](CC(C)C)NC(=O)[C@@H](CC(C)C)NC(=O)[C@H](Cc1ccc(O)cc1)NC(=O)[C@H](CO)NC(=O)[C@H](Cc1c[nH]c2ccccc12)NC(=O)[C@H](Cc1c[nH]cn1)NC(=O)[C@@H]1CCC(=O)N1", "note": "[Leuprolide]", "values": [{"measurement": "inhibition of cell proliferation (cell viability, Alamar Blue)", "setting": "[1]", "value": "totally inactive"}]}, {"molecule": "CC[C@H](C)[C@H](N)C1=N[C@H](C(=O)N[C@@H](CC(C)C)C(=O)N[C@H](CCC(=O)O)C(=O)N[C@H](C(=O)N[C@H]2CCCCNC(=O)[C@H](CC(N)=O)NC(=O)[C@@H](CC(=O)O)NC(=O)[C@H](Cc3cnc[nH]3)NC(=O)[C@@H](Cc3ccccc3)NC(=O)[C@H]([C@@H](C)CC)NC(=O)[C@@H](CCCN)NC2=O)[C@@H](C)CC)CS1", "note": "[bacitracin] (HELM PEPTIDE1{[CC[C@H](C)[C@H](N)C1=N[C@H](C(=O)[*:2])CS1].L.[dE].I.K.[NCCC[C@@H](N[*:1])C(=O)[*:2]].I.[dF].H.[dD].N}$PEPTIDE1,PEPTIDE1,5:R3-11:R2$$$V2.0)", "values": [{"measurement": "inhibition of the degradation of mammalian GnRH in tumor cell extracts", "setting": "[4]; specific inhibitors of post-proline peptidase", "value": "inhibited"}]}, {"molecule": "Antide", "values": [{"measurement": "degradation by chorionic post-proline peptidase (in words)", "setting": "[2]", "value": "degraded with reduced activity"}, {"measurement": "potency as competitor for chorionic post-proline peptidase compared to GnRH (in words)", "setting": "[2]", "value": "three fold less potent than GnRH"}, {"measurement": "relative potency of inhibition of chorionic post-proline peptidase activity compared to that for GnRH", "setting": "[2]", "value": 0.6}]}, {"molecule": "Im-btl-D-His(6)-GnRH-ethylamide", "values": [{"measurement": "receptor potency (in words)", "setting": "[3]", "value": "reduced receptor potency"}]}, {"molecule": "Mammalian GnRH: mammalian gonadotropin releasing hormone decapeptide", "values": [{"measurement": "competitive inhibition of I^125-D-Arg(6)-Chicken II GnRH-aza-Gly(10)-amide binding (rank of potency)", "setting": "[3]", "value": "weakest competitor"}, {"measurement": "degradation of mammalian GnRH by the tumor tissue cells", "setting": "[4]; after overnight incubation", "value": "~100", "unit": "%"}, {"measurement": "degradation by chorionic post-proline peptidase (in words)", "setting": "[5]", "value": "actively degraded"}, {"measurement": "inhibition of cell proliferation", "setting": "[1]", "value": "totally ineffective"}]}, {"molecule": "OH-Pro(9)-GnRH", "values": [{"measurement": "relative potency of inhibition of chorionic post-proline peptidase activity compared to that for GnRH", "setting": "[2]", "value": 1.5}]}, {"molecule": "des-Gly(10), D-Trp(6)-GnRH ethylamide", "values": [{"measurement": "degradation by chorionic post-proline peptidase (in words)", "setting": "[2]", "value": "competitively inhibited the degradation of mammalian GnRH"}]}, {"molecule": "des-Gly(10)-D-Leu(6)-GnRH ethylamide", "values": [{"measurement": "degradation by chorionic post-proline peptidase (in words)", "setting": "[2]", "value": "competitively inhibited the degradation of mammalian GnRH"}]}, {"molecule": "des-Gly(10)-GnRH ethylamide", "values": [{"measurement": "degradation by chorionic post-proline peptidase (in words)", "setting": "[2]", "value": "competitively inhibited the degradation of mammalian GnRH"}]}]}
